Test results published in patent US6962911B2, “Pyrrolopyrimidinone derivatives, process of preparation and use” (SK Chemicals Co., Ltd., priority 2000, dated 2005).
Where a name gives a salt, the structure may show the parent alone. Read-outs that look alike come from different tables or passages of the source.

Key:
cGMP PDE V = cGMP PDE V (Homo sapiens, UniProt O76074); assay: cyclic nucleotide PDE V activity, PDE SPA assay kit, inhibition study; type: biochemical
Description: The cyclic nucleotide PDE V activity was determined using PDE SPA assay kit (Amersham Pharmacia biotech, UK). Each reaction mixture (100 μL total volume) consisted of the column elute containing PDE V (10 μL), [^3H]-cGMP (5 μCi/mL), bovine serum albumin (0.5 mg/mL), and MgCl2 (5 mM) in Tris-HCl buffer (15 mM, pH 7.5). The reactions were initiated by the addition of PDE V and the samples were incubated at 30° C. for 30 min, after which the reaction was stopped by the addition of 50 μL of SPA beads. The reaction tube was then settled for 20 min and was counted on the scintillation counter (Tri-carb 1500, Packard, USA). For the inhibition study of PDE V activity, the sildenafil and test compounds were dissolved in dimethyl sulfoxide (DMSO) and was diluted with distilled water. The final concentration of DMSO was less than 0.2% (v/v).
The following table illustrate the in vitro activities for a range of the compounds of the invention as inhibitors of cGMP PDE V.

[1] = in vitro inhibition of cGMP PDE V, [3H]-cGMP, 30° C., 30 min, read-out: IC50

## CCCc1cn(C)c2c(=O)[nH]c(-c3cc(S(=O)(=O)N4CCN(CCCF)CC4)ccc3OCC)nc12 [Example 19, 5-(2-ethoxy-5-(4-(3-fluoropropyl)piperazinylsulfonyl)phenyl)-1-methyl-3-n-propyl-1,6-dihydro-7H-pyrrolo[4,3-d]pyrimidin-7-one sulfuric acid]
cGMP PDE V; [1]
  IC50: 0.64 nM

## CCCc1cn(C)c2c(=O)[nH]c(-c3cc(S(=O)(=O)N4CCN(CCCl)CC4)ccc3OCC)nc12 [Example 33, 5-(5-(4-(2-chloroethyl)piperazinylsulfonyl)-2-ethoxyphenyl)-1-methyl-3-n-propyl-1,6-dihydro-7H-pyrrolo[4,3-d]pyrimidin-7-one]
other
  melting point: 226 °C (dec.)
cGMP PDE V
  IC50: 2.06 nM

## CCCc1cn(C)c2c(=O)[nH]c(-c3cc(S(=O)(=O)N4CCN(CCCCl)CC4)ccc3OCC)nc12 [Example 35, 5-(5-(4-(3-chloropropyl)piperazinylsulfonyl)-2-ethoxyphenyl)-1-methyl-3-n-propyl-1,6-dihydro-7H-pyrrolo[4,3-d]pyrimidin-7-one hydrochloride]
cGMP PDE V; [1]
  IC50: 0.49 nM

## CCCOc1ccc(S(=O)(=O)N2CCC(C(=O)O)CC2)cc1-c1nc2c(CCC)cn(C)c2c(=O)[nH]1 [Example 105]
other
  melting point: 155 to 155.5 °C
cGMP PDE V; [1]
  IC50: 0.71 nM

## CCCc1cn(C)c2c(=O)[nH]c(-c3cc(S(=O)(=O)N4CCC(CC(=O)O)CC4)ccc3OCC)nc12 [Example 106, 5-(2-ethoxy-5-(4-(hydroxycarbonylmethyl)piperidinylsulfonyl)phenyl)-1-methyl-3-n-propyl-1,6-dihydro-7H-pyrrolo[4,3-d]pyrimidin-7-one]
other
  melting point: 138.5 to 139.5 °C
cGMP PDE V; [1]
  IC50: 0.27 nM

## CCCc1cn(C)c2c(=O)[nH]c(-c3cc(S(=O)(=O)N4CCN(Cc5nnn[nH]5)CC4)ccc3OCC)nc12 [Example 116]
other
  melting point: 188 °C (dec.)
cGMP PDE V; [1]
  IC50: 0.28 nM

## CCCOc1ccc(S(=O)(=O)N2CCN(Cc3nnn[nH]3)CC2)cc1-c1nc2c(CCC)cn(C)c2c(=O)[nH]1 [Example 117, 5-(2-n-propoxy-5-(4-(1H-tetrazol-5-ylmethyl)piperazinylsulfonyl)phenyl)-1-methyl-3-n-propyl-1,6-dihydro-7H-pyrrolo[4,3-d]pyrimidin-7-one]
other
  melting point: 150 °C (dec.)
cGMP PDE V; [1]
  IC50: 0.7 nM
